Values after ≈ are worked out from the molar mass of the structure shown. Like-named read-outs stand apart in the source and are kept apart here.

The test system of one assay is Enterococcus pseudoavium. Nature of the assay: MIC determination, stool Firmicute isolates. The following applies: N=1. The format is cell-based.
Assay [1] deals with Paeniclostridium sordellii. Nature of the assay: MIC determination, stool Firmicute isolates. The format is cell-based. The following applies: Paraclostridium sordellii.
The next assay relates to gut microbiome. Nature of the assay: Germ-free humanized mouse study, 16S rRNA gut microbiome analysis. It counts as in vivo. Conditions: humanized germ-free mice; for proportional change of Bacteroidetes (in words): phylum level. An excerpt:
Germ-free (GF) mice (six per group) were randomly assigned to IBZ, VAN, FDX, MTZ, or control groups.
An oral gavage of healthy human-derived fecal slurry was given to GF mice. The humanized mice were housed in a sterile biological safety cabinet (BSC) for one week to allow the donor gut microbiome to establish. Humanized mice were then moved to sterile, micro-isolator cages and pellet chow diet was exchanged for a powder chow diet. The humanized mice were then allowed one week to acclimate to the powder chow diet. In addition, a stool sample was obtained prior to the change in diet (baseline 1). At day 14, once the mice acclimated to the powder chow diet, a second baseline stool sample was obtained (baseline 2) and antibiotic treatment was started. The appropriate antibiotics were added to the powder chow diet for 10 days. At day 16, two days after beginning antibiotic treatment, another stool sample was collected (ABX-1). During the 10-day antibiotic treatment, powder chow dishes were refilled each day with fresh chow containing the randomly assigned antibiotic. Stool samples were again collected at day 24 (ABX-2).
To assess antibiotic microbiome effect, 16S rRNA metagenomics was used on stool samples that were collected at day 0 (baseline 1 and baseline 2) and after 2 and […] of treatment with antibiotics. Bulk DNA was extracted from stool samples using the DNeasy® PowerSoil® Kit. The V4 region of the bacterial 16S rRNA gene was sequenced using the Illumina MiSeq and CLC Genomics Workbench. Raw sequencing reads were processed and curated using the mothur (v.1.48.0) software package and the mothur MiSeq SOP was followed as outlined in Schloss, P. D., et al., Introducing mothur: open-source, platform-independent, community supported software for describing and comparing microbial communities. Appl Environ Microbiol, 2009. 75(23): p. 7537-41 (see also, Kozich, J. J., et al., Development of a dual-index sequencing strategy and curation pipeline for analyzing amplicon sequence data on the MiSeq Illumina sequencing platform. Appl Environ Microbiol, 2013. 79(17): p. 5112-20.). All data visualization and statistical analysis were performed using R studio (R Core Team (2023). R: A Language and Environment for Statistical Computing, Vienna, Austria.).

Assay [2] relates to C. difficile CD 630 motility. Description: Phenotypic motility assay. The following applies: sub-inhibitory concentrations in semi-solid BHI agar.
The mark [3] stands for this setting: antibiotic in powder chow 10 days.
The mark [4] stands for this setting: antibiotic in powder chow 10 days, compared to Baseline 2 (D14).

As for `O=c1[nH]c(NCc2ccc(Cl)c(Cl)c2)nc2ncn(CCN3CCOCC3)c12` [Ibezapolstat, 2-((3,4-dichlorobenzyl)amino)-7-(2-morpholinoethyl)-1,7-dihydro-6H-purin-6-one], the MIC50 against Enterococcus pseudoavium turned out to be 100 µg/mL (≈ 236 µM); in assay [1] (Paeniclostridium sordellii, N=4) it was 1.5 µg/mL (≈ 3.54 µM). Also, the minimum inhibitory concentration (MIC) in assay [1] (read-out: MIC Max) came to 12.5 µg/mL (≈ 29.5 µM); in assay [1] (Paeniclostridium sordellii, N=4, read-out: MIC Min) it was 0.75 µg/mL (≈ 1.77 µM). In addition, the “proportional change of Bacteroidetes (in words)” value in the assay on gut microbiome was “proportional increases”; with gut microbiome (listed as IBZ) it was “significant proportional increase”. In the assay on gut microbiome (setting [3]), the “Average Change in Metric ± SD, Bray-Curtis Dissim. to Baseline 1” value is given as 0.81 ± 0.02. Further, the “Average Change in Metric ± SD, Bray-Curtis Dissim. to Baseline 2” value with gut microbiome (setting [3]) is listed as 0.68 ± 0.03. The “Avg. Change in Relative Abundance ± SD, Actinobacteria” value in the assay on gut microbiome (setting [4]) is 0.02% ± 0.08%. In the assay with gut microbiome (setting [4]), the “Avg. Change in Relative Abundance ± SD, Bacteroidetes” value is listed as 34% ± 2.96%. The “Avg. Change in Relative Abundance ± SD, Proteobacteria” value in the assay with gut microbiome (setting [4]) was 9.7% ± 3.12%. Moreover, the entries for the “motility of CD 630” value in assay [2] and in assay [2] (listed as IBZ) were “attenuated motility” and “less motile”, respectively.

One may read the MIC50 as an inhibitory concentration at the 50% level, which refers to growth in some studies and to a panel of isolates in others. What is called MIC is the lowest concentration found to suppress growth.

For the origin of these results see patent publication US20260144796A1, “Compounds and Methods for Improving Health” (Acurx Pharmaceuticals, Inc., priority 2022, published 2026).
